A short description of data set [1]: Neurotoxicity in human SH-SY5Y cells assessed as reduction in cell viability at 50 uM by WST-8 assay. The format is toxicity, cell-based.
Another data set deals with SH-SY5Y. Kind of data set: Neuroprotective activity against H2O2-induced cell death in human SH-SY5Y cells pretreated with compound followed by H2O2 stimulation and measured after 24 hrs by WST-8 assay. It is filed as functional, cell-based. Background: Tetrazolium dyes change colour on reduction, which living cells bring about.

Activity calls are given as the source filed them. The rule behind the calls is not given here.

Turning to `O=C1C=C2Nc3cc(CCO)ccc3O[C@]23CCO[C@@]1(O)C3` (racemic), the Activity result in data set [1] is recorded as “Non-Toxic”. The result in the data set on SH-SY5Y was Active. For `OCCc1ccc(O)c(O)c1` [HYDROXYTYROSOL], the Activity result in data set [1] is listed as “Non-Toxic”. Also, in the data set on SH-SY5Y, the outcome was Active. For the compound `Cc1c(C)c2c(c(C)c1O)CCC(C)(C(=O)O)O2` (configuration not stated), the result in the data set on SH-SY5Y was Active. For `O=C1C=C2Nc3ccc(CCO)cc3O[C@]23CCO[C@@]1(O)C3` (racemic), the Activity entry in data set [1] is “Non-Toxic”. Moreover, in the data set on SH-SY5Y, the result was Active.

The values are drawn from ChEMBL document CHEMBL5241116, “Isolation of Fluorescent Benzoxazines with Neuroprotective Activity from the Olive Weevil Pimelocerus perforatus” (J Nat Prod, 2022).
